Test results reported in EP3173421A1, “PEPTIDIC COMPOUNDS USEFUL AS ANTIBACTERIAL AGENTS” (Universitat de Barcelona, priority 2015, dated 2017).
Converted amounts (≈) assume the structure as drawn. Read-outs that look alike come from different tables or passages of the source. Marks after values point to notes of the source that are not given here. Where a SMILES comes first, the peptide text is derived from it. Bridges are numbered along the chain shown (N, C = ends). Where no end group is shown, it is not given here. [ ]: non-standard residue; d: D form. The star is where a group is joined. ξ: configuration not given here. dAoc(2) = CCCCCC[C@@H](N)C(=O)O; ξLac(3-iPr) = CC(C)CC(O)C(=O)O; Decanoyl = CCCCCCCCCC(=O)*; Nonanoyl = CCCCCCCCC(=O)*; Heptanoyl = CCCCCCC(=O)*; Nle = CCCC[C@H](N)C(=O)O; Octanoyl = CCCCCCCC(=O)*; Dab = NCC[C@H](N)C(=O)O; Hexanoyl = CCCCCC(=O)*

Assays:
[1] = test system: Escherichia coli ATCC 8739; assay type: cell-based
Excerpt: (§1) Bacterial strains used for the antibacterial activity tests were obtained from the American Type Culture Collection (ATCC, Rockville, MD, USA): • Non resistant Gram-negative bacterias: • Escherichia coli ATCC 8739 • Pseudomonas aeruginosa ATCC 9027 • Non resistant Gram-positive bacteria: • Staphylococcus aureus ATTC6538

[2] = test system: Pseudomonas aeruginosa ATCC 9027; assay type: cell-based
Excerpt: as §1

[3] = test system: Staphylococcus aureus ATTC6538; assay type: cell-based
Excerpt: as §1

Escherichia coli MAC21a = assay type: cell-based
Excerpt: (§2) E. coli strains: NDM-1 (multidrug resistant strain) and VAL10, VAL5 and MAC21 strains show intermediante resistance to quinolones

Escherichia coli NDM-1 = assay type: cell-based
Excerpt: as §2

Escherichia coli VAL 10 = assay type: cell-based
Excerpt: as §2

Escherichia coli VAL 5 = assay type: cell-based
Excerpt: as §2

[4] = test system: Pseudomonas aeruginosa 36a; assay type: cell-based
Protocol: (§7) For resistant and multi-drug resistant bacteria Gram negative bacteria, the test was essentially the same with slight changes in the amounts used: samples of a final volume of 100µL were prepared as follows: aliquots (50 µL) of a suspension containing bacteria at a concentration of 1.5x10^6 colony-forming units/mL in culture medium (MH, Muller Hinton Broth, Difco, USA), adjusted at pH 7.4, were added to 100µL of solution containing the peptide prepared from a stock solution of 1024 mg/L peptide in water in serial 2-fold dilutions in MH broth adjusted to pH 7.4

[5] = test system: Pseudomonas aeruginosa 38a; assay type: cell-based
Protocol: as §7

[6] = test system: Pseudomonas aeruginosa 21 R; conditions: P. aeruginosa 21R
Protocol: (§3) The antibacterial activity of the lipopeptides was measured in sterile 96-well plates (Corning Costar 3598 microtiter plates). Samples of a final volume of 200µL were prepared as follows: aliquots (100 µL) of a suspension containing bacteria at a concentration of 10^5 colony-forming units/mL in culture medium (MH, Muller Hinton Broth, Difco, USA), adjusted at pH 7.4, were added to 100µL of solution containing the peptide prepared from a stock solution of 1 mg/mL peptide in water in serial 2-fold dilutions in MH broth adjusted to pH 7.4 (Jorgensen and Turnide, 2003). Inhibition of bacterial growth was determined by measuring the absorbance at 492 nm with a Absorbance Microplate reader ELx 800 (Bio-tek Instruments) after an incubation of 18-20 h at 37°C. Antibacterial activities are expressed as the MIC, the concentration at which no growth is observed after 18-20 h of incubation. Microorganisms were cultured on Tryptycase Soy Broth (Pronadisa, Barcelona) and incubated at 37°C until growth. Then a loopfull was streaked on Trypticase Soy Agar (Pronadisa, Barcelona) and incubated at 37°C until colony formation occurs. Microorganisms were preserved on cryobilles (EAS laboratoire, France) at -20°C.
(§4) For resistant and multi-drug resistant bacteria Gram negative bacteria, the test was essentially the same with slight changes in the amounts used: samples of a final volume of 100µL were prepared as follows: aliquots (50 µL) of a suspension containing bacteria at a concentration of 1.5x10^6 colony-forming units/mL in culture medium (MH, Muller Hinton Broth, Difco, USA), adjusted at pH 7.4, were added to […] of solution containing the peptide prepared from a stock solution of 1024 mg/L peptide in water in serial 2-fold dilutions in MH broth adjusted to pH 7.4
(§5) Samples of resistant and multi-drug resistant bacteria were from clinical origin and not standardized: • Resistant Gram-negative bacterias used: • Escherichia coli VAL 5 • Escherichia coli VAL 10 • Escherichia coli MAC21a • Escherichia coli NDM-1 • Pseudomonas aeruginosa 36a • Pseudomonas aeruginosa 38a • Pseudomonas aeruginosa 21 R • Pseudomonas aeruginosa 21 S • Pseudomonas aeruginosa 12R • Pseudomonas aeruginosa 12S • Colistin-resistant A. baumannii CR49 • Colistin-resistant A. baumannii Ab99
(§6) P. aeruginosa strains are highly-resistant: For instance, 38a and 36a are resistant to Ceftazidime, Ciprofloxacin, Imipenem, Piperacillin-tazobactam; 21S is resistant to Ceftazidime, Ciprofloxacin, Imipenem, Piperacillin-tazobactam and tobramycin; 21 R is resistant to Ciprofloxacin, tobramycin and colistin; 12S is resistant to cefotoxin, piperacillin/tazobactam, aztreonam, gentamicin and amikacin; and 12R is resistant to ceftazidime, cefotoxin,cefepime, piperacillin/tazobactam, aztreonam,imipenem, gentamicin, amikacin and colistin.

[7] = test system: Pseudomonas aeruginosa 21 S; conditions: P. aeruginosa 21S
Protocol: as §3, §4, §5, §6

[8] = test system: Pseudomonas aeruginosa 12R; assay type: cell-based; conditions: P. aeruginosa 12R
Protocol: as §7
(§8) Samples of resistant and multi-drug resistant bacteria were from clinical origin and not standardized: • Resistant Gram-negative bacterias used: • Escherichia coli VAL 5 • Escherichia coli VAL 10 • Escherichia coli MAC21a • Escherichia coli NDM-1 • Pseudomonas aeruginosa 36a • Pseudomonas aeruginosa 38a • Pseudomonas aeruginosa 21 R • Pseudomonas aeruginosa 21 S • Pseudomonas aeruginosa 12R • Pseudomonas aeruginosa 12S • Colistin-resistant A. baumannii CR49 • Colistin-resistant A. baumannii Ab99 […]

[9] = test system: Pseudomonas aeruginosa 12S; assay type: cell-based; conditions: P. aeruginosa 12S
Protocol: as §7, §8

[10] = test system: Colistin-resistant A. baumannii CR49; assay type: cell-based
Protocol: as §7

[11] = test system: Colistin-resistant A. baumannii Ab99; assay type: cell-based
Protocol: as §7

[12] = test system: Escherichia coli ATCC 8739; conditions: E coli ATCC8739 (non-resistant); comparative examples, extracted from Rabanal et al. 2015; cited from earlier work
[13] = test system: Pseudomonas aeruginosa ATCC 9027; conditions: P. aeruginosa ATTC9027 (non-resistant); comparative examples, extracted from Rabanal et al. 2015; cited from earlier work
[14] = test system: Staphylococcus aureus ATTC6538; conditions: S. aureus ATTC6538; comparative examples, extracted from Rabanal et al. 2015; cited from earlier work

Compound	MIC [1] [µg/mL]	MIC [3] [µg/mL]	MIC (Escherichia coli MAC21a) [µg/mL]	MIC (Escherichia coli NDM-1) [µg/mL]	MIC (Escherichia coli VAL 10) [µg/mL]	MIC (Escherichia coli VAL 5) [µg/mL]	MIC ([2]; ATCC 9027) [µg/mL]	MIC ([4]; 36a) [µg/mL]	MIC ([5]; 38a) [µg/mL]	MIC [6] [µg/mL]	MIC [7] [µg/mL]	MIC [8] [µg/mL]	MIC [9] [µg/mL]	MIC [10] [µg/mL]	MIC [11] [µg/mL]	other results
CCCCCC[C@H]1NC(=O)[C@H](CCN)NC(=O)[C@@H](NC(=O)[C@H](CCN)NC(=O)[C@@H](NC(=O)[C@H](CCN)NC(=O)CCCCC)[C@@H](C)O)CSSC[C@H](C(N)=O)NC(=O)[C@H](CCN)NC(=O)[C@H](CCN)NC(=O)[C@H](CCCC)NC1=O [Example 7, hexanoyl-Dab-Thr-Dab-cyclo(S-S)[Cys-Dab-DAoc-Nle-Dab-Dab-DCys]] (Hexanoyl-[Dab]T[Dab]C[Dab][dAoc(2)][Nle][Dab][Dab][dC]-NH2; disulfide 4-10)	8 (≈ 6.81 µM)	>32	–	–	–	–	–	–	–	–	–	–	–	–	–	MIC ([2]; P. aeruginosa ATTC9027 (non-resistant)): 1-2* µg/ml
CCCCCC[C@@H](N)C(=O)N[C@H](C(=O)N[C@@H](CCN)C(=O)N[C@H]1CSSC[C@H](C(N)=O)NC(=O)[C@H](CCN)NC(=O)[C@H](CCN)NC(=O)C(CC(C)C)OC(=O)[C@@H](CCCCCC)NC(=O)[C@H](CCN)NC1=O)[C@@H](C)O (stereo partly drawn) [Example 3, DAoc-Thr-Dab-cyclo(S-S)[Cys-Dab-DAoc-OLe-Dab-Dab-DCys]] (H-[dAoc(2)]T[Dab]C[Dab][dAoc(2)][ξLac(3-iPr)][Dab][Dab][dC]-NH2; disulfide 4-10)	2 (≈ 1.79 µM)	–	8 (≈ 7.15 µM)	2 (≈ 1.79 µM)	16 (≈ 14.3 µM)	2 (≈ 1.79 µM)	0.25 (≈ 0.223 µM)	0.5 (≈ 0.447 µM)	4 (≈ 3.57 µM)	0.125 (≈ 0.112 µM)	0.25 (≈ 0.223 µM)	0.25 (≈ 0.223 µM)	0.5 (≈ 0.447 µM)	8 (≈ 7.15 µM)	8 (≈ 7.15 µM)	–
CCCCCCCC(=O)N[C@@H](CCN)C(=O)N[C@H](C(=O)N[C@@H](CCN)C(=O)N[C@H]1CSSC[C@H](C(N)=O)NC(=O)[C@H](CCN)NC(=O)[C@H](CCN)NC(=O)C(CC(C)C)OC(=O)[C@@H](CCCCCC)NC(=O)[C@H](CCN)NC1=O)[C@@H](C)O (stereo partly drawn) [Example 4, octanoyl-Dab-Thr-Dab-cyclo(S-S)[Cys-Dab-DAoc-OLe-Dab-Dab-DCys]] (Octanoyl-[Dab]T[Dab]C[Dab][dAoc(2)][ξLac(3-iPr)][Dab][Dab][dC]-NH2; disulfide 4-10)	1 (≈ 0.83 µM)	–	8 (≈ 6.64 µM)	1 (≈ 0.83 µM)	8 (≈ 6.64 µM)	1 (≈ 0.83 µM)	0.25 (≈ 0.208 µM)	–	–	2 (≈ 1.66 µM)	0.25 (≈ 0.208 µM)	0.25 (≈ 0.208 µM)	0.125 (≈ 0.104 µM)	16 (≈ 13.3 µM)	8 (≈ 6.64 µM)	MIC ([4]; P. aeruginosa 36a): 0.125 µg/mL (≈ 0.104 µM); MIC ([5]; P. aeruginosa 38a): 0.125 µg/mL (≈ 0.104 µM)
Decanoyl-[Dab]T[Dab]C[Dab][dF]L[Dab][Dab][dC] (cysteine pairing not given here) [Comparative Example 8b]	–	–	–	–	–	–	–	–	–	–	–	–	–	–	–	MIC [12]: 2 µg/mL; MIC [13]: 4 µg/mL; MIC [14]: 8 µg/mL
Nonanoyl-[Dab]T[Dab]C[Dab][dF]L[Dab][Dab]C (cysteine pairing not given here) [Comparative Example 8a]	–	–	–	–	–	–	–	–	–	–	–	–	–	–	–	MIC [12]: 4 µg/mL; MIC [13]: 8 µg/mL; MIC [14]: >32 µg/mL
CCCCCCC(=O)N[C@@H](Cc1c[nH]cn1)C(=O)N[C@H](C(=O)N[C@@H](CCN)C(=O)N[C@H]1CSSC[C@H](C(N)=O)NC(=O)[C@H](Cc2c[nH]cn2)NC(=O)[C@H](CCN)NC(=O)[C@H](CCCC)NC(=O)[C@@H](CCCCCC)NC(=O)[C@H](CCN)NC1=O)[C@@H](C)O [Example 6] (Heptanoyl-HT[Dab]C[Dab][dAoc(2)][Nle][Dab]H[dC]-NH2; disulfide 4-10)	4 (≈ 3.17 µM)	16 (≈ 12.7 µM)	8 (≈ 6.33 µM)	8 (≈ 6.33 µM)	16 (≈ 12.7 µM)	8 (≈ 6.33 µM)	1 (≈ 0.791 µM)	1 (≈ 0.791 µM)	32 (≈ 25.3 µM)	–	–	–	–	4 (≈ 3.17 µM)	32 (≈ 25.3 µM)	–
CCCCCC[C@H]1NC(=O)[C@H](CCN)NC(=O)[C@@H](NC(=O)[C@H](CCN)NC(=O)[C@@H](NC(=O)[C@H](CCN)NC(=O)CCCCC)[C@@H](C)O)CSSC[C@H](C(N)=O)NC(=O)[C@H](CCN)NC(=O)[C@H](CCN)NC(=O)C(CC(C)C)OC1=O (stereo partly drawn) [Example 5, hexanoyl-Dab-Thr-Dab-cyclo(S-S)[Cys-Dab-DAoc-OLe-Dab-Dab-DCys]] (Hexanoyl-[Dab]T[Dab]C[Dab][dAoc(2)][ξLac(3-iPr)][Dab][Dab][dC]-NH2; disulfide 4-10)	2 to 4	32 (≈ 27.2 µM)	–	–	–	–	<0.25	–	–	–	–	–	–	–	–	–
CCCCCCC(=O)N[C@@H](CCN)C(=O)N[C@H](C(=O)N[C@@H](CCN)C(=O)N[C@H]1CSSC[C@H](C(N)=O)NC(=O)[C@H](CCN)NC(=O)[C@H](CCN)NC(=O)C(CC(C)C)OC(=O)[C@@H](CCCCCC)NC(=O)[C@H](CCN)NC1=O)[C@@H](C)O (stereo partly drawn) [Example 2, heptanoyl-Dab-Thr-Dab-cyclo(S-S)[Cys-Dab-DAoc-OLe-Dab-Dab-DCyc]] (Heptanoyl-[Dab]T[Dab]C[Dab][dAoc(2)][ξLac(3-iPr)][Dab][Dab][dC]-NH2; disulfide 4-10)	4 (≈ 3.36 µM)	64 (≈ 53.8 µM)	8 (≈ 6.72 µM)	1 (≈ 0.84 µM)	32 (≈ 26.9 µM)	1 (≈ 0.84 µM)	1 to 2	1 (≈ 0.84 µM)	0.125 (≈ 0.105 µM)	2 (≈ 1.68 µM)	0.25 (≈ 0.21 µM)	0.25 (≈ 0.21 µM)	0.25 (≈ 0.21 µM)	16 (≈ 13.4 µM)	16 (≈ 13.4 µM)	–
CCCCCCC(=O)N[C@@H](CCN)C(=O)N[C@H](C(=O)N[C@@H](CCN)C(=O)N[C@H]1CSSC[C@H](C(N)=O)NC(=O)[C@H](CCN)NC(=O)[C@H](CCN)NC(=O)[C@H](CCCC)NC(=O)[C@@H](CCCCCC)NC(=O)[C@H](CCN)NC1=O)[C@@H](C)O [Example 1, heptanoyl-Dab-Thr-Dab-cyclo(S-S)[Cys-Dab-DAoc-Nle-Dab-Dab-DCys]] (Heptanoyl-[Dab]T[Dab]C[Dab][dAoc(2)][Nle][Dab][Dab][dC]-NH2; disulfide 4-10)	0.5 to 1	16 (≈ 13.5 µM)	<0.5	≤ 0.5	1 (≈ 0.841 µM)	1 (≈ 0.841 µM)	0.5 (≈ 0.42 µM)	0.06 (≈ 0.0504 µM)	0.03 (≈ 0.0252 µM)	0.25 (≈ 0.21 µM)	0.03 (≈ 0.0252 µM)	1 (≈ 0.841 µM)	0.5 (≈ 0.42 µM)	–	–	–
